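Tested at 5 concentrations; 48 h exposure; 96-well plates; endpoints linearly interpolated, else capped at highest concentration. The concentration for 50% growth inhibition is given as GI50.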 Active and inactive are the calls of the source. No stated cut-off is given here; in the data, active = GI50 up to about 1.1 µM and inactive = higher.

These results are taken from ChEMBL document CHEMBL1201862, “PubChem BioAssay data set” (2004).

Test systems include 786-0; A549; BT-549; HCC 2998; KM12; LOX IMVI; M14; MOLT-4; NCI-H522; OVCAR-5; SF-295; SF-539; SK-MEL-28; SNB-75; SW-620; UACC-257; UACC-62; UO-31; DU-145; MCF7.
Holding throughout (experiment): NCI-60 cell line screen, 48 h

For the compound `O=C1NCCCNCCCNCCCNC(=O)c2cccc1n2`, the GI50 in the test with 786-0, in the test with A549, in the test with BT-549, in the test with HCC 2998, in the test with KM12 and in the test on LOX IMVI was > 100 µM (inactive) in each case. For the same compound, the GI50 in the test with M14, in the test with MOLT-4, in the test on NCI-H522, in the test with OVCAR-5, in the test with SF-295 and with SF-539 was > 100 µM (inactive) in each case. For the same compound, the GI50 in the test on SK-MEL-28, in the test with SNB-75, in the test with SW-620, in the test with UACC-257, in the test with UACC-62 and in the test on UO-31 was > 100 µM (inactive) throughout.
As to `N=c1c2c(=S)n(-c3ccccc3)c(=S)n(-c3ccccc3)c2nc(SCCN2CCCC2)n1-c1ccccc1`, the GI50 is 0.622 µM (active) with 786-0; 2.39 µM (inactive) in the test on A549; 1.92 µM (inactive) in the test with BT-549; 1.76 µM (inactive) in the test on DU-145; 1.31 µM (inactive) with HCC 2998; 5.2 µM (inactive) in the test on KM12. For the same compound, the GI50 is 1.63 µM (inactive) with LOX IMVI; 1.6 µM (inactive) in the test with M14; 0.08 µM (active) in the test with MOLT-4; 1.72 µM (inactive) with NCI-H522; 17.5 µM (inactive) in the test with OVCAR-5; 15.2 µM (inactive) in the test with SF-295. Also, the GI50 is 5.02 µM (inactive) with SF-539; 3.69 µM (inactive) in the test on SK-MEL-28; 2.66 µM (inactive) in the test with SNB-75; 1.76 µM (inactive) with SW-620; 1.61 µM (inactive) in the test on UACC-257; 1.63 µM (inactive) in the test with UACC-62.
For the compound `CN(NC(=O)c1cccs1)C1=NCCCCN1`, the GI50 with 786-0, in the test with A549, in the test on BT-549, with HCC 2998, in the test on KM12 and with LOX IMVI was > 100 µM (inactive) throughout. Also, the GI50 with M14, in the test with MCF7, with MOLT-4, in the test with NCI-H522, in the test with OVCAR-5 and in the test on SF-295 was > 100 µM (inactive) in each case. Moreover, the GI50 with SF-539, in the test with SK-MEL-28, in the test with SNB-75, with SW-620, in the test with UACC-257 and in the test with UACC-62 was > 100 µM (inactive) each time. The GI50 with UO-31 is > 100 µM (inactive).
With `CN(NC(=O)/C(=C/C=C/c1ccccc1)NC(=O)c1ccccc1)C1=C(Cl)C(=O)[N+](c2ccccc2)=CC1`, the GI50 in the test with 786-0 is 19.4 µM (inactive); in the test on A549 it was 26.3 µM (inactive); with BT-549, 22.5 µM (inactive); in the test with DU-145, 33 µM (inactive); with KM12, 16.7 µM (inactive); in the test on LOX IMVI, 17.3 µM (inactive). Further, the GI50 is 18.1 µM (inactive) in the test with M14; 16.7 µM (inactive) in the test on MCF7; 24.3 µM (inactive) with MOLT-4; 23.3 µM (inactive) in the test on NCI-H522; > 100 µM (inactive) in the test with OVCAR-5; 35 µM (inactive) in the test on SF-295. Further, the GI50 in the test with SF-539 is 19.7 µM (inactive); in the test with SK-MEL-28, 16.9 µM (inactive); in the test on SNB-75 it was 21.6 µM (inactive); in the test with SW-620 it was 16.4 µM (inactive); with UACC-257, 41.2 µM (inactive); in the test on UO-31, 26.5 µM (inactive).
With `COC(=O)C(Cc1c(C2Nc3ccccc3C2CC(NC(C)=O)C(=O)OC)[nH]c2ccccc12)NC(C)=O` (centres undefined), the GI50 in the test on 786-0, in the test with A549, in the test with BT-549, in the test on DU-145, with KM12 and with LOX IMVI was > 100 µM (inactive) in each case. The GI50 with M14, in the test on MOLT-4, in the test with NCI-H522, in the test with OVCAR-5, with SF-295 and in the test on SF-539 was > 100 µM (inactive) throughout. Also, the GI50 with SK-MEL-28, in the test on SNB-75, in the test with SW-620, in the test on UACC-257, in the test on UACC-62 and with UO-31 was > 100 µM (inactive) throughout.
In the case of `COc1ccc(-c2cc(-c3ccccc3)nc(N)c2-c2ccc3ccccc3c2)cc1`, the GI50 was 1.73 µM (inactive) in the test with 786-0; 2.21 µM (inactive) with A549; 1.64 µM (inactive) in the test on BT-549; 1.83 µM (inactive) with HCC 2998; 1.73 µM (inactive) in the test on KM12; 1.72 µM (inactive) in the test with LOX IMVI. The GI50 with M14 was 2.53 µM (inactive); in the test with MCF7, 1.83 µM (inactive); in the test on MOLT-4, 2.37 µM (inactive); with NCI-H522, < 0.01 µM (active); in the test with OVCAR-5, 1.77 µM (inactive); in the test on SF-295, 1.87 µM (inactive). Further, the GI50 was 2.1 µM (inactive) in the test on SF-539; 1.95 µM (inactive) in the test with SK-MEL-28; 2.3 µM (inactive) with SNB-75; 1.75 µM (inactive) in the test on SW-620; 1.86 µM (inactive) in the test on UACC-257; 1.58 µM (inactive) in the test on UACC-62. Further, the GI50 in the test with UO-31 was 1.99 µM (inactive).
For `CCOC(=O)CC(=O)Nc1cccc2nc[nH]c12`, the GI50 is > 100 µM (inactive) in the test with 786-0; > 100 µM (inactive) with A549; > 100 µM (inactive) with BT-549; > 100 µM (inactive) with DU-145; 51.8 µM (inactive) in the test on KM12; > 100 µM (inactive) in the test with M14. The GI50 in the test on MCF7, with MOLT-4, with OVCAR-5, in the test with SF-295, in the test on SF-539 and with SK-MEL-28 was > 100 µM (inactive) throughout. The GI50 in the test with SNB-75 is 0.294 µM (active); in the test on SW-620, > 100 µM (inactive); with UACC-257 it was > 100 µM (inactive); with UACC-62, > 100 µM (inactive); in the test with UO-31, > 100 µM (inactive).
Regarding `c1ccc2sc(SCN(C3CCCCC3)C3CCCCC3)nc2c1`, the GI50 with A549, in the test with BT-549, in the test with DU-145, in the test on HCC 2998, with KM12 and with LOX IMVI was > 100 µM (inactive) throughout. Besides, the GI50 with M14, in the test with MOLT-4, with NCI-H522, in the test on OVCAR-5, in the test with SF-295 and in the test with SK-MEL-28 was > 100 µM (inactive) throughout. Besides, the GI50 with SW-620, in the test on UACC-257, in the test on UACC-62 and in the test with UO-31 was > 100 µM (inactive) each time.
Turning to `CN(C)c1n/c(=N/Cc2ccccc2)ss1`, the GI50 is > 6.82 µM (inactive) in the test with 786-0; > 10 µM (inactive) in the test on A549; > 10 µM (inactive) in the test with DU-145; > 9.64 µM (inactive) in the test on HCC 2998; > 10 µM (inactive) with KM12; > 5.77 µM (inactive) in the test with LOX IMVI. Besides, the GI50 is > 10 µM (inactive) in the test with M14; > 10 µM (inactive) with MCF7; 1.81 µM (inactive) in the test on MOLT-4; 2.61 µM (inactive) in the test on NCI-H522; > 10 µM (inactive) in the test on OVCAR-5; > 10 µM (inactive) in the test on SF-295. Further, the GI50 in the test on SF-539, in the test on SK-MEL-28, in the test with SNB-75, in the test on SW-620, in the test on UACC-257 and with UACC-62 was > 10 µM (inactive) in each case. In addition, the GI50 with UO-31 was 9.25 µM (inactive).
Regarding `COc1cc2c3cc1Oc1cc(ccc1O)C[C@@H]1c4c(cc(OC)c(O)c4Oc4ccc(cc4)C[C@@H]3N(C)CC2)CC[N+]1(C)C`, the GI50 with 786-0 is 55.3 µM (inactive); in the test with A549, > 100 µM (inactive); with BT-549 it was > 100 µM (inactive); with DU-145 it was 42 µM (inactive); in the test with KM12, 27.1 µM (inactive); in the test on LOX IMVI it was 17.8 µM (inactive). Also, the GI50 is 16.8 µM (inactive) in the test on M14; 22.4 µM (inactive) in the test with MCF7; 61.8 µM (inactive) in the test with MOLT-4; 24.9 µM (inactive) with NCI-H522; > 100 µM (inactive) in the test with OVCAR-5; 19.9 µM (inactive) in the test on SF-295. Besides, the GI50 in the test on SF-539 was 15.1 µM (inactive); in the test with SK-MEL-28, > 100 µM (inactive); with SW-620, 27.2 µM (inactive); with UACC-257, 56 µM (inactive); in the test with UACC-62 it was > 100 µM (inactive); with UO-31, > 100 µM (inactive).
As to `CCCCCc1cc2c(cc1O)CC[C@@H]1[C@@H]2CC[C@]2(C)[C@@H](O)CC[C@@H]12`, the GI50 was 14.8 µM (inactive) in the test with 786-0; 19.3 µM (inactive) in the test on A549; 16.4 µM (inactive) with DU-145; 24.3 µM (inactive) with HCC 2998; 10.9 µM (inactive) in the test with KM12; 18.2 µM (inactive) in the test on LOX IMVI. The GI50 with M14 is 14.9 µM (inactive); in the test with MCF7 it was 16.4 µM (inactive); with MOLT-4, 24.3 µM (inactive); in the test on NCI-H522, 18.8 µM (inactive); in the test with OVCAR-5, 18.8 µM (inactive); in the test on SF-295, 13.4 µM (inactive). In addition, the GI50 with SF-539 was 23.8 µM (inactive); in the test with SK-MEL-28, 16.2 µM (inactive); in the test with SNB-75 it was 13.5 µM (inactive); in the test on SW-620, 26.4 µM (inactive); in the test with UACC-257, 21 µM (inactive); with UACC-62 it was 19.2 µM (inactive). Further, the GI50 with UO-31 is 13.9 µM (inactive).
